Results published in PMC5218480 (PLoS ONE, 2017).

Tested on: MV-4-11 cells
Experiment: Gene expression microarray analysis (Affymetrix PrimeView) and GSEA
Type: cell-based, human
Parameters: RFU PODN (11730768_x_at) / Fold change /veh PODN (11730768_x_at) / RFU LINC00158 (11744669_a_at) / Fold change /veh LINC00158 (11744669_a_at) / RFU DUSP10 (11751237_a_at) / Fold change /veh DUSP10 (11751237_a_at) / RFU ID3 (11757404_x_at) / Fold change /veh ID3 (11757404_x_at) / RFU PLEKHG5 (11737974_s_at) / Fold change /veh PLEKHG5 (11737974_s_at) / RFU LRRC4B (11730491_at) / Fold change /veh LRRC4B (11730491_at) / RFU GIMAP4 (11747438_a_at) / Fold change /veh GIMAP4 (11747438_a_at) / RFU KRT8 (11758183_x_at) / Fold change /veh KRT8 (11758183_x_at) / RFU CNN1 (11734310_a_at) / Fold change /veh CNN1 (11734310_a_at) / RFU VPS37D (11726825_at) / Fold change /veh VPS37D (11726825_at) / RFU C10orf10 (11716522_x_at) / Fold change /veh C10orf10 (11716522_x_at) / RFU KIR2DL2 /// KIR2DL4 /// KIR2DL5A /// KIR2DL5B /// KIR2DS1 /// KIR2DS2 /// KIR2DS3 /// KIR2DS4 /// KIR3DL3 /// KIR3DL3 /// KIR3DS1 (11738374_at) / Fold change /veh KIR2DL2 /// KIR2DL4 /// KIR2DL5A /// KIR2DL5B /// KIR2DS1 /// KIR2DS2 /// KIR2DS3 /// KIR2DS4 /// KIR3DL3 /// KIR3DL3 /// KIR3DS1 (11738374_at) / RFU C1QL1 (11718748_at) / Fold change /veh C1QL1 (11718748_at) / RFU TMPRSS4 (11747572_a_at) / Fold change /veh TMPRSS4 (11747572_a_at) / RFU HAMP (11756126_x_at) / Fold change /veh HAMP (11756126_x_at) / RFU RNFT2 (11725882_a_at) / Fold change /veh RNFT2 (11725882_a_at) / RFU NR4A2 (11747474_a_at) / Fold change /veh NR4A2 (11747474_a_at) / RFU ABCC12 (11746883_a_at) / Fold change /veh ABCC12 (11746883_a_at) / RFU TMEM136 (11760407_x_at) / Fold change /veh TMEM136 (11760407_x_at) / RFU CLDN22 /// WWC2 (11732394_at) / Fold change /veh CLDN22 /// WWC2 (11732394_at) / RFU HLA-DPB1 (11760878_x_at) / Fold change /veh HLA-DPB1 (11760878_x_at) / RFU SPINT1 (11716480_a_at) / Fold change /veh SPINT1 (11716480_a_at) / RFU GAP43 (11754022_s_at) / Fold change /veh GAP43 (11754022_s_at) / RFU A4GNT (11735810_at) / Fold change /veh A4GNT (11735810_at) / RFU PRB3 (11715151_x_at) / Fold change /veh PRB3 (11715151_x_at) / RFU TUBB4B (11761932_at) / Fold change /veh TUBB4B (11761932_at) / RFU CAPN14 (11732068_a_at) / Fold change /veh CAPN14 (11732068_a_at) / RFU TMCC2 (11721928_a_at) / Fold change /veh TMCC2 (11721928_a_at) / RFU IRGQ (11745062_a_at) / Fold change /veh IRGQ (11745062_a_at) / RFU FAM174B (11720279_a_at) / Fold change /veh FAM174B (11720279_a_at) / RFU TMPRSS4 (11748680_a_at) / Fold change /veh TMPRSS4 (11748680_a_at) / RFU FAM212B (11763350_a_at) / Fold change /veh FAM212B (11763350_a_at) / RFU PLEKHG5 (11743358_a_at) / Fold change /veh PLEKHG5 (11743358_a_at) / RFU ZSCAN30 (11745921_a_at) / Fold change /veh ZSCAN30 (11745921_a_at) / RFU CMKLR1 (11741424_a_at) / Fold change /veh CMKLR1 (11741424_a_at) / RFU LOC101060620 /// MAPK8IP1 (11723275_at) / Fold change /veh LOC101060620 /// MAPK8IP1 (11723275_at) / RFU SPTSSB (11747773_x_at) / Fold change /veh SPTSSB (11747773_x_at) / RFU PRSS12 (11739890_at) / Fold change /veh PRSS12 (11739890_at) / RFU BIN1 (11741810_x_at) / Fold change /veh BIN1 (11741810_x_at) / RFU WNT11 (11732464_a_at) / Fold change /veh WNT11 (11732464_a_at) / RFU C10orf10 (11716521_a_at) / Fold change /veh C10orf10 (11716521_a_at) / RFU C5orf56 (11738089_at) / Fold change /veh C5orf56 (11738089_at) / RFU CYB561 (11721691_x_at) / Fold change /veh CYB561 (11721691_x_at) / RFU ANKRD19P (11752326_a_at) / Fold change /veh ANKRD19P (11752326_a_at) / RFU OR2T12 /// OR2T33 /// OR2T8 (11738714_s_at) / Fold change /veh OR2T12 /// OR2T33 /// OR2T8 (11738714_s_at) / RFU VCAN (11748164_a_at) / Fold change /veh VCAN (11748164_a_at) / RFU JSRP1 (11732532_at) / Fold change /veh JSRP1 (11732532_at) / RFU KRTAP10-11 (11738290_x_at) / Fold change /veh KRTAP10-11 (11738290_x_at) / RFU MYO3A (11730013_a_at) / Fold change /veh MYO3A (11730013_a_at) / RFU EBF3 (11725865_a_at) / Fold change /veh EBF3 (11725865_a_at) / RFU CAMK2N1 (11719241_x_at) / Fold change /veh CAMK2N1 (11719241_x_at) / RFU C5orf56 (11738088_a_at) / Fold change /veh C5orf56 (11738088_a_at) / RFU OLFML3 (11715873_a_at) / Fold change /veh OLFML3 (11715873_a_at) / RFU LOC100653217 /// NTM (11731650_a_at) / Fold change /veh LOC100653217 /// NTM (11731650_a_at) / RFU MAPK11 (11762145_a_at) / Fold change /veh MAPK11 (11762145_a_at) / RFU FIZ1 (11724087_x_at) / Fold change /veh FIZ1 (11724087_x_at) / RFU OASL (11726364_x_at) / Fold change /veh OASL (11726364_x_at) / RFU SOX15 (11748057_x_at) / Fold change /veh SOX15 (11748057_x_at) / RFU CD79A (11719716_a_at) / Fold change /veh CD79A (11719716_a_at) / RFU HIST1H1D (11736915_at) / Fold change /veh HIST1H1D (11736915_at) / RFU CASKIN2 (11723855_a_at) / Fold change /veh CASKIN2 (11723855_a_at) / RFU LOC730098 (11760151_x_at) / Fold change /veh LOC730098 (11760151_x_at) / RFU OR4N2 (11742367_at) / Fold change /veh OR4N2 (11742367_at) / RFU PRRT2 (11749266_a_at) / Fold change /veh PRRT2 (11749266_a_at) / RFU SNX32 (11753110_a_at) / Fold change /veh SNX32 (11753110_a_at) / RFU CDHR5 (11726645_a_at) / Fold change /veh CDHR5 (11726645_a_at) / RFU RCAN1 (11760418_a_at) / Fold change /veh RCAN1 (11760418_a_at) / RFU FAM167A (11723789_a_at) / Fold change /veh FAM167A (11723789_a_at) / RFU FAM26E (11764081_at) / Fold change /veh FAM26E (11764081_at) / RFU ISYNA1 (11749810_s_at) / Fold change /veh ISYNA1 (11749810_s_at) / RFU ACY1 (11761880_at) / Fold change /veh ACY1 (11761880_at) / RFU 11764098_at / Fold change /veh 11764098_at / RFU SAMD14 (11745864_x_at) / Fold change /veh SAMD14 (11745864_x_at) / RFU NPB (11741838_a_at) / Fold change /veh NPB (11741838_a_at) / RFU TMPRSS6 (11731388_a_at) / Fold change /veh TMPRSS6 (11731388_a_at) / RFU KRTAP10-2 (11738614_at) / Fold change /veh KRTAP10-2 (11738614_at) / RFU ARHGAP8 /// PRR5-ARHGAP8 (11727945_x_at) / Fold change /veh ARHGAP8 /// PRR5-ARHGAP8 (11727945_x_at) / RFU KRTAP5-7 /// NADSYN1 (11734609_at) / Fold change /veh KRTAP5-7 /// NADSYN1 (11734609_at) / RFU RASL12 (11751679_a_at) / Fold change /veh RASL12 (11751679_a_at) / RFU CDKN2B (11736163_a_at) / Fold change /veh CDKN2B (11736163_a_at) / RFU PRF1 (11729649_at) / Fold change /veh PRF1 (11729649_at) / RFU, ZNF638 /// ZNF638-IT1 / Fold change vs veh, ZNF638 /// ZNF638-IT1 / RFU, PANK3 / Fold change vs veh, PANK3 / RFU, SH3YL1 / Fold change vs veh, SH3YL1 / RFU, ZEB2 / Fold change vs veh, ZEB2 / RFU, NRIP1 / Fold change vs veh, NRIP1 / RFU, PTTG1IP / Fold change vs veh, PTTG1IP / RFU, CAPN2 / Fold change vs veh, CAPN2 / RFU, MED14 / Fold change vs veh, MED14 / RFU, SNORA58 / Fold change vs veh, SNORA58 / RFU, C1orf63 / Fold change vs veh, C1orf63 / RFU, LRRFIP1 / Fold change vs veh, LRRFIP1 / RFU, NDUFAF7 / Fold change vs veh, NDUFAF7 / RFU, SLC12A2 / Fold change vs veh, SLC12A2 / RFU, IBTK / Fold change vs veh, IBTK / RFU, ESF1 / Fold change vs veh, ESF1 / Fold change vs veh, TMEM50B / RFU, TAOK1 / Fold change vs veh, TAOK1 / RFU, ACBD3 / Fold change vs veh, ACBD3 / RFU, TMA16 / Fold change vs veh, TMA16 / RFU, RWDD3 / Fold change vs veh, RWDD3 / RFU, BCAT1 / Fold change vs veh, BCAT1 / RFU, EDEM3 / Fold change vs veh, EDEM3 / RFU, TMEM33 / Fold change vs veh, TMEM33 / RFU, WDR75 / Fold change vs veh, WDR75 / RFU, AHCTF1 / Fold change vs veh, AHCTF1 / RFU, TFRC / Fold change vs veh, TFRC / RFU, ZDHHC17 / Fold change vs veh, ZDHHC17 / RFU, NOM1 / Fold change vs veh, NOM1 / RFU, ARL8B / Fold change vs veh, ARL8B / RFU, ZBTB11 / Fold change vs veh, ZBTB11 / RFU, TAMM41 / Fold change vs veh, TAMM41 / RFU, KIAA1704 /// LOC100996395 / Fold change vs veh, KIAA1704 /// LOC100996395 / RFU, ING1 / Fold change vs veh, ING1 / RFU, TRMT61B / Fold change vs veh, TRMT61B / RFU, FUBP3 / Fold change vs veh, FUBP3 / RFU, TP53 / Fold change vs veh, TP53 / RFU, TNKS2 / Fold change vs veh, TNKS2 / RFU, ZFP14 / Fold change vs veh, ZFP14 / RFU, ACTR2 / Fold change vs veh, ACTR2 / RFU, PPP3R1 / Fold change vs veh, PPP3R1 / RFU, PIK3R1 / Fold change vs veh, PIK3R1 / RFU, HNRNPA1 / Fold change vs veh, HNRNPA1 / RFU, RNF170 / Fold change vs veh, RNF170 / RFU, ZNF28 / Fold change vs veh, ZNF28 / RFU, RNGTT / Fold change vs veh, RNGTT / RFU, OGT / Fold change vs veh, OGT / RFU, BRD1 / Fold change vs veh, BRD1 / RFU, MARS / Fold change vs veh, MARS / RFU, ZNF655 / Fold change vs veh, ZNF655 / RFU, FAHD1 / Fold change vs veh, FAHD1 / RFU, BDP1 / Fold change vs veh, BDP1 / RFU, LRRCC1 / Fold change vs veh, LRRCC1 / RFU, ARID1A / Fold change vs veh, ARID1A / RFU, ZNF146 / Fold change vs veh, ZNF146 / RFU, ZNF330 / Fold change vs veh, ZNF330 / RFU, GPN3 / Fold change vs veh, GPN3 / RFU, C9orf123 / Fold change vs veh, C9orf123 / RFU, N4BP2L2 / Fold change vs veh, N4BP2L2 / RFU, ARFIP1 / Fold change vs veh, ARFIP1 / RFU, FAM179B / Fold change vs veh, FAM179B / RFU, BCL10 / Fold change vs veh, BCL10 / RFU, UHRF1BP1L / Fold change vs veh, UHRF1BP1L / RFU, BET1 / Fold change vs veh, BET1 / RFU, CNOT2 / Fold change vs veh, CNOT2 / RFU, ZNF268 / Fold change vs veh, ZNF268 / Fold change vs veh, ZNF507 / RFU, DGCR2 / Fold change vs veh, DGCR2 / RFU, WDSUB1 / Fold change vs veh, WDSUB1 / Fold change vs veh, HSP90B1 /// MIR3652 / RFU, ADSS / Fold change vs veh, ADSS / RFU, GK / Fold change vs veh, GK / RFU, ZNF148 / Fold change vs veh, ZNF148 / RFU, TAF9 / Fold change vs veh, TAF9 / RFU, SLC1A5 / Fold change vs veh, SLC1A5 / RFU, SLMO2 / Fold change vs veh, SLMO2 / RFU, ABCC4 / Fold change vs veh, ABCC4 / RFU, LOC101060439 /// RAP1B / Fold change vs veh, LOC101060439 /// RAP1B / RFU, RFX7 / Fold change vs veh, RFX7 / RFU, GTPBP10 / Fold change vs veh, GTPBP10 / RFU, CNEP1R1 / Fold change vs veh, CNEP1R1 / RFU, BIVM-ERCC5 /// ERCC5 / Fold change vs veh, BIVM-ERCC5 /// ERCC5 / RFU, ILF3 / Fold change vs veh, ILF3 / RFU 11762660_at / Fold change /veh 11762660_at / RFU VCAN (11757783_s_at) / Fold change /veh VCAN (11757783_s_at) / RFU DDX43 (11728927_at) / Fold change /veh DDX43 (11728927_at) / RFU KRT8 (11758188_x_at) / Fold change /veh KRT8 (11758188_x_at) / RFU NKD1 (11759106_at) / Fold change /veh NKD1 (11759106_at) / RFU SRD5A1 (11742802_a_at) / Fold change /veh SRD5A1 (11742802_a_at) / RFU TPSAB1 /// TPSB2 (11721975_s_at) / Fold change /veh TPSAB1 /// TPSB2 (11721975_s_at) / RFU GSTM3 (11746129_a_at) / Fold change /veh GSTM3 (11746129_a_at) / RFU IL23R (11737362_x_at) / Fold change /veh IL23R (11737362_x_at) / RFU TMEM51 (11727254_a_at) / Fold change /veh TMEM51 (11727254_a_at) / RFU PIWIL2 (11732686_x_at) / Fold change /veh PIWIL2 (11732686_x_at) / RFU ORM1 (11744905_x_at) / Fold change /veh ORM1 (11744905_x_at) / RFU CCDC152 (11743942_at) / Fold change /veh CCDC152 (11743942_at) / RFU ECM1 (11717891_a_at) / Fold change /veh ECM1 (11717891_a_at) / RFU IL23R (11748794_a_at) / Fold change /veh IL23R (11748794_a_at) / RFU TNFAIP8L3 (11732012_x_at) / Fold change /veh TNFAIP8L3 (11732012_x_at) / RFU MBOAT4 (11741988_at) / Fold change /veh MBOAT4 (11741988_at) / RFU 11764193_at / Fold change /veh 11764193_at / RFU TMEM53 (11763286_at) / Fold change /veh TMEM53 (11763286_at) / RFU MAGEB2 (11727129_at) / Fold change /veh MAGEB2 (11727129_at) / RFU TMEM200A (11744735_a_at) / Fold change /veh TMEM200A (11744735_a_at) / RFU CCDC152 (11751479_a_at) / Fold change /veh CCDC152 (11751479_a_at) / RFU FAM211A (11726209_a_at) / Fold change /veh FAM211A (11726209_a_at) / RFU RGS16 (11746705_a_at) / Fold change /veh RGS16 (11746705_a_at) / RFU VCAN (11755009_s_at) / Fold change /veh VCAN (11755009_s_at) / RFU RHOB (11743442_s_at) / Fold change /veh RHOB (11743442_s_at) / RFU RGS16 (11720943_a_at) / Fold change /veh RGS16 (11720943_a_at) / RFU RGS16 (11720944_at) / Fold change /veh RGS16 (11720944_at) / RFU, VPS4B / Fold change vs veh, VPS4B / RFU, CREB1 / Fold change vs veh, CREB1 / RFU, DNAJC13 / Fold change vs veh, DNAJC13 / RFU, GNAQ / Fold change vs veh, GNAQ / RFU, CDK5R1 / Fold change vs veh, CDK5R1 / RFU, ZRANB3 / Fold change vs veh, ZRANB3 / RFU, CUL4A / Fold change vs veh, CUL4A / RFU, CCNY / Fold change vs veh, CCNY / RFU, UFL1 / Fold change vs veh, UFL1 / RFU, COG3 / Fold change vs veh, COG3 / RFU, DIAPH2 / Fold change vs veh, DIAPH2 / RFU, SKA2 / Fold change vs veh, SKA2 / RFU, AFF3 / Fold change vs veh, AFF3 / RFU, LMF1 / Fold change vs veh, LMF1 / RFU, IPO11 / Fold change vs veh, IPO11 / RFU, DFFB / Fold change vs veh, DFFB / RFU, FOXP1 / Fold change vs veh, FOXP1 / RFU, CARD8 / Fold change vs veh, CARD8 / RFU, STRN3 / Fold change vs veh, STRN3 / RFU, ADK / Fold change vs veh, ADK / RFU, RASSF2 / Fold change vs veh, RASSF2 / RFU, WIPF1 / Fold change vs veh, WIPF1 / RFU, LARP1B / Fold change vs veh, LARP1B / RFU, RASA1 / Fold change vs veh, RASA1 / RFU, RB1 / Fold change vs veh, RB1 / RFU, PPFIA1 / Fold change vs veh, PPFIA1 / RFU, MAT2A / Fold change vs veh, MAT2A / RFU, CCT5 / Fold change vs veh, CCT5 / RFU, WDR92 / Fold change vs veh, WDR92 / RFU, CUX1 / Fold change vs veh, CUX1 / RFU, TTC7A / Fold change vs veh, TTC7A / RFU, TMEM135 / Fold change vs veh, TMEM135 / RFU, DEPTOR / Fold change vs veh, DEPTOR / RFU, CPM / Fold change vs veh, CPM / RFU, DNAJB6 / Fold change vs veh, DNAJB6 / RFU, CACNA2D3 / Fold change vs veh, CACNA2D3 / RFU, DTX4 / Fold change vs veh, DTX4 / RFU, TFCP2 / Fold change vs veh, TFCP2 / RFU, GMCL1 /// GMCL1P1 / Fold change vs veh, GMCL1 /// GMCL1P1 / RFU, AEBP2 / Fold change vs veh, AEBP2 / RFU, SNHG1 /// SNORD22 /// SNORD25 /// SNORD26 /// SNORD27 /// SNORD28 /// SNORD29 /// SNORD31 / Fold change vs veh, SNHG1 /// SNORD22 /// SNORD25 /// SNORD26 /// SNORD27 /// SNORD28 /// SNORD29 /// SNORD31 / Fold change (Aza/veh), C12orf56 (ProbeSet 11735607_a_at) / Fold change (ACY-1035/veh), C12orf56 (ProbeSet 11735607_a_at) / Fold change (Aza/veh), FGFR1OP (ProbeSet 11751329_s_at) / Fold change (ACY-1035/veh), FGFR1OP (ProbeSet 11751329_s_at) / Fold change (Aza/veh), VPS36 (ProbeSet 11739960_a_at) / Fold change (ACY-1035/veh), VPS36 (ProbeSet 11739960_a_at) / RFU SYPL1 (11715823_x_at) / Fold change /veh SYPL1 (11715823_x_at) / RFU IGFBP7 (11715501_s_at) / Fold change /veh IGFBP7 (11715501_s_at) / RFU REEP3 (11722064_at) / Fold change /veh REEP3 (11722064_at) / RFU IGLL1 (11728026_x_at) / Fold change /veh IGLL1 (11728026_x_at): dose or concentration left out as unconfirmed
Conditions: ProbeSet 11743510_at; LIST D

Nc1ccc(-c2cccs2)cc1NC(=O)c1ccc2c(c1)cc(C1CC1)n2CCN1CCOCC1 [ACY-1035]
Fold change vs veh, UFL1: 0.85
